## CC(=O)Nc1cccc(N)c1
In DMF, 278.15 K
  solubility (mole fraction): 0.029
In DMF, 283.15 K
  solubility (mole fraction): 0.043
In DMF, 288.15 K
  solubility (mole fraction): 0.061
In DMF, 293.15 K
  solubility (mole fraction): 0.088
In DMF, 298.15 K
  solubility (mole fraction): 0.124
In DMF, 303.15 K
  solubility (mole fraction): 0.166
In DMF, 308.15 K
  solubility (mole fraction): 0.22
In DMF, 313.15 K
  solubility (mole fraction): 0.285
In DMF, 318.15 K
  solubility (mole fraction): 0.358
In DMF, 323.15 K
  solubility (mole fraction): 0.44
In THF, 278.15 K
  solubility (mole fraction): 0.108
In THF, 283.15 K
  solubility (mole fraction): 0.146
In THF, 288.15 K
  solubility (mole fraction): 0.194
In THF, 293.15 K
  solubility (mole fraction): 0.256
In THF, 298.15 K
  solubility (mole fraction): 0.328
In THF, 303.15 K
  solubility (mole fraction): 0.404
In THF, 308.15 K
  solubility (mole fraction): 0.487
In THF, 313.15 K
  solubility (mole fraction): 0.568
In THF, 318.15 K
  solubility (mole fraction): 0.653
In THF, 323.15 K
  solubility (mole fraction): 0.729
In acetone, 278.15 K
  solubility (mole fraction): 0.05
In acetone, 283.15 K
  solubility (mole fraction): 0.063
In acetone, 288.15 K
  solubility (mole fraction): 0.081
In acetone, 293.15 K
  solubility (mole fraction): 0.101
In acetone, 298.15 K
  solubility (mole fraction): 0.125
In acetone, 303.15 K
  solubility (mole fraction): 0.153
In acetone, 308.15 K
  solubility (mole fraction): 0.186
In acetone, 313.15 K
  solubility (mole fraction): 0.225
In acetone, 318.15 K
  solubility (mole fraction): 0.27
In acetone, 323.15 K
  solubility (mole fraction): 0.319
In acetonitrile, 278.15 K
  solubility (mole fraction): 0.0283
In acetonitrile, 283.15 K
  solubility (mole fraction): 0.0322
In acetonitrile, 288.15 K
  solubility (mole fraction): 0.0382
In acetonitrile, 293.15 K
  solubility (mole fraction): 0.0453
In acetonitrile, 298.15 K
  solubility (mole fraction): 0.0535
In acetonitrile, 303.15 K
  solubility (mole fraction): 0.0644
In acetonitrile, 308.15 K
  solubility (mole fraction): 0.0752
In acetonitrile, 313.15 K
  solubility (mole fraction): 0.0908
In acetonitrile, 318.15 K
  solubility (mole fraction): 0.108
In acetonitrile, 323.15 K
  solubility (mole fraction): 0.128
In ethyl acetate, 278.15 K
  solubility (mole fraction): 0.033
In ethyl acetate, 283.15 K
  solubility (mole fraction): 0.038
In ethyl acetate, 288.15 K
  solubility (mole fraction): 0.043
In ethyl acetate, 293.15 K
  solubility (mole fraction): 0.049
In ethyl acetate, 298.15 K
  solubility (mole fraction): 0.055
In ethyl acetate, 303.15 K
  solubility (mole fraction): 0.063
In ethyl acetate, 308.15 K
  solubility (mole fraction): 0.074
In ethyl acetate, 313.15 K
  solubility (mole fraction): 0.085
In ethyl acetate, 318.15 K
  solubility (mole fraction): 0.099
In ethyl acetate, 323.15 K
  solubility (mole fraction): 0.114
In isopropanol, 278.15 K
  solubility (mole fraction): 0.021
In isopropanol, 283.15 K
  solubility (mole fraction): 0.031
In isopropanol, 288.15 K
  solubility (mole fraction): 0.048
In isopropanol, 293.15 K
  solubility (mole fraction): 0.064
In isopropanol, 298.15 K
  solubility (mole fraction): 0.084
In isopropanol, 303.15 K
  solubility (mole fraction): 0.108
In isopropanol, 308.15 K
  solubility (mole fraction): 0.138
In isopropanol, 313.15 K
  solubility (mole fraction): 0.174
In isopropanol, 318.15 K
  solubility (mole fraction): 0.218
In isopropanol, 323.15 K
  solubility (mole fraction): 0.266
In methanol, 278.15 K
  solubility (mole fraction): 0.049
In methanol, 283.15 K
  solubility (mole fraction): 0.074
In methanol, 288.15 K
  solubility (mole fraction): 0.105
In methanol, 293.15 K
  solubility (mole fraction): 0.148
In methanol, 298.15 K
  solubility (mole fraction): 0.207
In methanol, 303.15 K
  solubility (mole fraction): 0.274
In methanol, 308.15 K
  solubility (mole fraction): 0.351
In methanol, 313.15 K
  solubility (mole fraction): 0.44
In methanol, 318.15 K
  solubility (mole fraction): 0.53
In methanol, 323.15 K
  solubility (mole fraction): 0.613
In water, 278.15 K
  solubility (mole fraction): 0.025
In water, 283.15 K
  solubility (mole fraction): 0.039
In water, 288.15 K
  solubility (mole fraction): 0.06
In water, 293.15 K
  solubility (mole fraction): 0.091
In water, 298.15 K
  solubility (mole fraction): 0.133
In water, 303.15 K
  solubility (mole fraction): 0.19
In water, 308.15 K
  solubility (mole fraction): 0.262
In water, 313.15 K
  solubility (mole fraction): 0.347
In water, 318.15 K
  solubility (mole fraction): 0.439
In water, 323.15 K
  solubility (mole fraction): 0.541
